Test results from patent US8889878B2, “Haloalky-substituted amides as insecticides and acaricides” (Bayer CropScience AG, priority 2009, dated 2014).

Legend:
[1] = tested on: mustard beetle (Phaedon cochleariae); experiment: Phaedon test (PHAECO spray treatment), Example 7; format: in vivo; details: application rate 20 g/ha, china cabbage leaf discs sprayed, after 7 days
Procedure: Phaedon Test (PHAECO Spray Treatment)
(§1) • Solvent: 78.0 parts by weight of acetone • 1.5 parts by weight of dimethylformamide • Emulsifier: 0.5 part by weight of alkylaryl polyglycol ether
To prepare an active ingredient formulation, 1 part by weight of active ingredient is mixed with the stated amounts of solvent and emulsifier, and the concentrate is diluted with emulsifier-containing water to the desired concentration. Leaf discs from china cabbage (Brassica pekinensis) are sprayed with an active ingredient formulation of the desired concentration and, after drying, populated with larvae of the mustard beetle (Phaedon cochleariae).
After 7 days, the efficacy in % is determined. 100% means that all beetle larvae were killed; 0% means that no beetle larvae were killed.

Boophilus microplus = Boophilus microplus test (BOOPMI injection), Example 11; format: in vivo; details: application rate 20 μg/animal, injected into abdomen, after 7 days
Procedure: Boophilus microplus Test (BOOPMI Injection) • Solvent: dimethyl sulphoxide To prepare an appropriate active ingredient formulation, 10 mg of active ingredient are mixed with 0.5 ml of solvent and the concentrate is diluted with solvent to the desired concentration. The active ingredient solution is injected into the abdomen (Boophilus microplus), and the animals are transferred to dishes and stored in a climate-controlled room. The efficacy was assessed by the number of fertile eggs laid. After 7 days, the efficacy in % is determined. 100% means that none of the ticks has laid any fertile eggs.

[2] = logP by HPLC on reverse-phase column (EEC Directive 79/831 Annex V.A8); format: physicochemical; details: HPLC-MS
Procedure: The logP values reported in the above Tables and Preparation Examples were determined according to EEC Directive 79/831 Annex V.A8 by HPLC (High Performance Liquid Chromatography) on a reverse-phase column (C18). Temperature 43° C.

[3] = tested on: green peach aphid (Myzus persicae); experiment: Myzus test (MYZUPE spray treatment), Example 17; format: in vivo; details: china cabbage leaf discs sprayed, after 6 days
Procedure: Myzus Test (MYZUPE Spray Treatment)
• Solvent: 78 parts by weight of acetone • 1.5 parts by weight of dimethylformamide • Emulsifier: 0.5 part by weight of alkylaryl polyglycol ether
To prepare an appropriate active ingredient formulation, 1 part by weight of active ingredient is mixed with the stated amounts of solvent and emulsifier, and the concentrate is diluted with emulsifier-containing water to the desired concentration. Leaf discs from china cabbage (Brassica pekinensis) infested by all stages of the green peach aphid (Myzus persicae) are sprayed with an active ingredient formulation of the desired concentration.
After 6 days, the efficacy in % is determined. 100% means that all aphids were killed; 0% means that no aphids were killed.

[4] = tested on: red spider mite (Tetranychus urticae); experiment: Tetranychus test, OP-resistant (TETRUR spray treatment), Example 8; format: in vivo; details: application rate 20 g/ha, common bean leaf discs sprayed, after 6 days
Procedure: Tetranychus Test, OP-resistant (TETRUR Spray Treatment)
as §1
To prepare an active ingredient formulation, 1 part by weight of active ingredient is mixed with the stated amounts of solvent and emulsifier, and the concentrate is diluted with emulsifier-containing water to the desired concentration.
Leaf discs from the common bean (Phaseolus vulgaris) infested by all stages of the red spider mite (Tetranychus urticae) are sprayed with an active ingredient formulation of the desired concentration.
After 6 days, the efficacy in % is determined. 100% means that all spider mites were killed; 0% means that no spider mites were killed.

[5] = tested on: armyworm (Spodoptera frugiperda); experiment: Spodoptera frugiperda test (SPODFR spray treatment), Example 15; format: in vivo; details: application rate 100 g/ha, maize leaf discs sprayed, after 7 days
Method in brief: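 Caterpillars placed on dried, sprayed Zea mays leaf discs; formulation of acetone, dimethylformamide and emulsifier diluted with emulsifier-containing water to test concentration. Percent kill scored on day 7.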

SMILES | efficacy in % [1] [%] | efficacy in % (fertile eggs laid) (Boophilus microplus) [%] | logP [2] | efficacy in % ([3]; application rate 500 g/ha) [%] | efficacy in % [4] [%] | efficacy in % [5] [%] | efficacy in % ([3]; application rate 100 g/ha) [%]
O=C(/C=C/c1ccc(C(=O)NCc2ccccn2)c(Cl)c1)NC(c1cccc(C(F)(F)F)c1)C(F)(F)F (centres unmarked) [Ia-21] | 100 | 100 | HPLC-MS: logP = 2.75; mass | 100 |  |  | 
O=C(/C=C/c1ccc(C(=O)NCc2ccccn2)c(C(F)(F)F)c1)NC(c1cccc(C(F)(F)F)c1)C(F)(F)F (centres unmarked) [Ia-36] |  | 100 | HPLC-MS: logP = 2.75; mass |  | 100 |  | 
O=C(/C=C/c1ccc(C(=O)Nc2ccc(F)cc2)c(C(F)(F)F)c1)NC(c1cccc(C(F)(F)F)c1)C(F)(F)F (centres unmarked) [Ia-48] | 100 |  | HPLC-MS: logP = 3.89; mass |  | 90 |  | 
O=C(/C=C/c1ccc(C(=O)NCc2ccncc2)c(C(F)(F)F)c1)NC(c1cccc(C(F)(F)F)c1)C(F)(F)F (centres unmarked) [Ia-49] |  |  | HPLC-MS: logP = 2; mass |  | 90 |  | 
O=C(/C=C/c1ccc(C(=O)NCc2cccnc2)c(C(F)(F)F)c1)NC(c1cccc(C(F)(F)F)c1)C(F)(F)F (centres unmarked) [Ia-50] |  |  | HPLC-MS: logP = 2.23; mass |  | 100 |  | 
COC(CNC(=O)c1ccc(/C=C/C(=O)NC(c2cccc(C(F)(F)F)c2)C(F)(F)F)cc1C(F)(F)F)OC (centres unmarked) [Ia-51] | 100 |  | HPLC-MS: logP = 3.18; mass |  | 90 |  | 
O=C(/C=C/c1ccc(C(=O)NCC2CCCO2)c(C(F)(F)F)c1)NC(c1cccc(C(F)(F)F)c1)C(F)(F)F (centres unmarked) [Ia-52] |  |  | HPLC-MS: logP = 3.27; mass |  | 100 |  | 
O=C(/C=C/c1ccc(C(=O)NC2CC2F)c(C(F)(F)F)c1)NC(c1cccc(C(F)(F)F)c1)C(F)(F)F (centres unmarked) [Ia-65] | 100 |  | HPLC-MS: logP = 3.33; mass |  | 90 |  | 
O=C(/C=C/c1ccc(C(=O)NCc2ccnc(Cl)c2)c(C(F)(F)F)c1)NC(c1cccc(C(F)(F)F)c1)C(F)(F)F (centres unmarked) [Ia-66] | 100 |  | HPLC-MS: logP = 3.41; mass |  | 90 |  | 
O=C(/C=C/c1ccc(C(=O)N(C2CCOCC2)C2CC2)c(C(F)(F)F)c1)NC(c1cccc(C(F)(F)F)c1)C(F)(F)F (centres unmarked) [Ia-67] | 100 |  | HPLC-MS: logP = 3.77; mass | 90 |  |  | 
CCOC1(NC(=O)c2ccc(/C=C/C(=O)NC(c3cccc(C(F)(F)F)c3)C(F)(F)F)cc2C(F)(F)F)CC1 (centres unmarked) [Ia-68] | 100 |  | HPLC-MS: logP = 3.52; mass |  | 100 |  | 
O=C(/C=C/c1ccc(C(=O)NCc2ccccc2F)c(C(F)(F)F)c1)NC(c1cccc(C(F)(F)F)c1)C(F)(F)F (centres unmarked) [Ia-74] | 100 |  | HPLC-MS: logP = 3.77; mass |  | 90 |  | 
O=C(/C=C/c1ccc(C(=O)NCc2ccc(F)cn2)c(Br)c1)NC(c1cccc(C(F)(F)F)c1)C(F)(F)F (centres unmarked) [Ia-90] | 100 |  | HPLC-MS: logP = 3.23 mass |  | 80 |  | 
O=C(/C=C/c1ccc(C(=O)NCc2ncccn2)c(C(F)(F)F)c1)NC(c1cccc(C(F)(F)F)c1)C(F)(F)F (centres unmarked) [Ia-127] |  | 100 | HPLC-MS: logP = 3.05; mass |  |  | 100 | 90
C#CC(C)NC(=O)c1ccc(/C=C/C(=O)NC(c2cccc(C(F)(F)F)c2)C(F)(F)F)cc1C(F)(F)F (centres unmarked) [Ia-138] |  | 100 | HPLC-MS: logP = 3.58; mass |  |  | 100 | 80
O=C(/C=C/c1ccc(C(=O)NC(CF)CF)c(C(F)(F)F)c1)NC(c1cccc(C(F)(F)F)c1)C(F)(F)F (centres unmarked) [Ia-143] |  | 100 | HPLC-MS: logP = 3.48; mass |  |  | 100 | 100
O=C(/C=C/c1ccc(C(=O)NCC(F)F)c(Cl)c1)NC(c1cccc(C(F)(F)F)c1)C(F)(F)F (centres unmarked) [Ia-156] |  | 100 | HPLC-MS: logP = 3.34; mass |  |  | 100 | 100
